In PMC5608804, “Stepwise Evolution Improves Identification of Diverse Peptides Binding to a Protein Target” (Scientific Reports, 2017):

Molecular target: T1, streptavidin (Streptomyces avidinii, UniProt P22629)
T1 construct: purchased GE Healthcare (Little Chalfont, UK)
Test: Cy5-streptavidin binding on HotSpot discovery array, 5-mer L-peptide library
Conditions: for S/B: signal to background ratio
In short: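 Array of 2,476,099 5-mer peptides (19 amino acids, no cysteine) with Gly-Ser linkers, probed overnight at 4 °C with 0.5 µg/ml Cy5-streptavidin in Tris pH 7.4 buffer containing casein or BSA plus Tween-20. Cy5 fluorescence read at 635 nm; peptides selected by signal-to-background >4 across three arrays.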

[1] = 5-mer L-peptide library, from the average of three arrays
[2] = average of three arrays, L-peptide 5-mer library
[3] = 5-mer L-peptide library array, Cy5-streptavidin
[4] = 5-mer L-peptide library array, Cy5-streptavidin, from the average of three arrays
[5] = 5-mer L-peptide library array, Cy5-streptavidin, from average of three arrays

T1 sequence (P22629 25-183): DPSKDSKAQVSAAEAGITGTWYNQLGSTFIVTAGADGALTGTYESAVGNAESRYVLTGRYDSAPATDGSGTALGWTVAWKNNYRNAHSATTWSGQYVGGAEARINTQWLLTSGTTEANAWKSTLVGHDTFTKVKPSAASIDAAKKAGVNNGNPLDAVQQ

## LAFFH [L-amino acid 5-mer array peptide]
[1]
  S/B (signal to background ratio): 4.9
[2]
  S/B (signal to background ratio): 4.9

## LAFYH [L-amino acid 5-mer array peptide]
[2]
  S/B (signal to background ratio): 7.8
[3]
  S/B: 7.8

## LAHPM
[4]
  S/B (signal to background ratio): 62.9

## LAHPQ
[5]
  S/B (signal to background ratio): 168.6

## LAKYH [L-amino acid 5-mer array peptide]
[2]
  S/B (signal to background ratio): 12.2
[3]
  S/B: 12.2

## LAMFH [L-amino acid 5-mer array peptide]
[5]
  S/B (signal to background ratio): 21.1
[2]
  S/B (signal to background ratio): 21.1

## LAMYH [L-amino acid 5-mer array peptide]
[5]
  S/B (signal to background ratio): 22.8
[2]
  S/B (signal to background ratio): 22.8

## LAQFH [L-amino acid 5-mer array peptide]
[5]
  S/B (signal to background ratio): 39.7
[2]
  S/B (signal to background ratio): 39.7

## LARYH [L-amino acid 5-mer array peptide]
[2]
  S/B (signal to background ratio): 12.2
[3]
  S/B: 12.2

## LASYH [L-amino acid 5-mer array peptide]
[5]
  S/B (signal to background ratio): 25.7
[2]
  S/B (signal to background ratio): 25.7

## LATFH [L-amino acid 5-mer array peptide]
[2]
  S/B (signal to background ratio): 6.2
[3]
  S/B: 6.2

## LAVYH [L-amino acid 5-mer array peptide]
[5]
  S/B (signal to background ratio): 27.0
[2]
  S/B (signal to background ratio): 27.0

## LDHPQ
[4]
  S/B (signal to background ratio): 89.3

## LFHPQ
[5]
  S/B (signal to background ratio): 138.2

## LGAFH [L-amino acid 5-mer array peptide]
[5]
  S/B (signal to background ratio): 52.3
[2]
  S/B (signal to background ratio): 52.3

## LGAYH [L-amino acid 5-mer array peptide]
[5]
  S/B (signal to background ratio): 52.2
[2]
  S/B (signal to background ratio): 52.2

## LGEYH [L-amino acid 5-mer array peptide]
[5]
  S/B (signal to background ratio): 21.3
[2]
  S/B (signal to background ratio): 21.3

## LGGYH [L-amino acid 5-mer array peptide]
[2]
  S/B (signal to background ratio): 6.1
[3]
  S/B: 6.1

## LGHPM
[4]
  S/B (signal to background ratio): 76.1

## LGHPQ
[5]
  S/B (signal to background ratio): 171.2

## LGIYH [L-amino acid 5-mer array peptide]
[2]
  S/B (signal to background ratio): 10.5
[3]
  S/B: 10.5

## LGKYH [L-amino acid 5-mer array peptide]
[2]
  S/B (signal to background ratio): 6.7
[3]
  S/B: 6.7

## LGPFH [L-amino acid 5-mer array peptide]
[5]
  S/B (signal to background ratio): 51.1
[2]
  S/B (signal to background ratio): 51.1

## LGQFH [L-amino acid 5-mer array peptide]
[5]
  S/B (signal to background ratio): 21.5
[2]
  S/B (signal to background ratio): 21.5

## LGQYH [L-amino acid 5-mer array peptide]
[5]
  S/B (signal to background ratio): 31.1
[2]
  S/B (signal to background ratio): 31.1

## LGRFH [L-amino acid 5-mer array peptide]
[2]
  S/B (signal to background ratio): 8.7
[3]
  S/B: 8.7

## LGRYH [L-amino acid 5-mer array peptide]
[2]
  S/B (signal to background ratio): 9.7
[3]
  S/B: 9.7

## LGSFH [L-amino acid 5-mer array peptide]
[2]
  S/B (signal to background ratio): 8.7
[3]
  S/B: 8.7

## LHHPQ
[5]
  S/B (signal to background ratio): 188.8

## LHPMA
[5]
  S/B (signal to background ratio): 41.0

## LHPMI
[3]
  S/B: 5.3

## LHPMM
[3]
  S/B: 5.2

## LHPMN
[3]
  S/B: 9.7

## LHPMR
[3]
  S/B: 7.0

## LHPMS
[5]
  S/B (signal to background ratio): 22.2

## LHPMY
[3]
  S/B: 7.0

## LHPQA
[5]
  S/B (signal to background ratio): 128.0

## LHPQF
[4]
  S/B (signal to background ratio): 107.9

## LHPQH
[5]
  S/B (signal to background ratio): 38.5

## LHPQM
[5]
  S/B (signal to background ratio): 29.4

## LHPQN
[4]
  S/B (signal to background ratio): 105.2

## LHPQT
[3]
  S/B: 15.6

## LHPQV
[4]
  S/B (signal to background ratio): 74.5

## LHPQW
[3]
  S/B: 12.4

## LIHPQ
[5]
  S/B (signal to background ratio): 120.1

## LKHPM
[5]
  S/B (signal to background ratio): 26.3

## LKHPQ
[4]
  S/B (signal to background ratio): 83.5

## LLHPQ
[4]
  S/B (signal to background ratio): 105.6

## LMHPM
[4]
  S/B (signal to background ratio): 66.9

## LMHPQ
[5]
  S/B (signal to background ratio): 161.1

## LNHPQ
[5]
  S/B (signal to background ratio): 152.2

## LPHPM
[4]
  S/B (signal to background ratio): 58.1

## LPHPQ
[5]
  S/B (signal to background ratio): 180.6

## LQHPM
[4]
  S/B (signal to background ratio): 62.8

## LQHPQ
[5]
  S/B (signal to background ratio): 163.6

## LSAYH [L-amino acid 5-mer array peptide]
[2]
  S/B (signal to background ratio): 17.7
[3]
  S/B: 17.7

## LSHPM
[5]
  S/B (signal to background ratio): 55.5

## LSHPQ
[5]
  S/B (signal to background ratio): 156.2

## LSVYH [L-amino acid 5-mer array peptide]
[2]
  S/B (signal to background ratio): 5.3
[3]
  S/B: 5.3

## LTHPM
[4]
  S/B (signal to background ratio): 64.2

## LTHPQ
[5]
  S/B (signal to background ratio): 150.0

## LVHPM
[5]
  S/B (signal to background ratio): 31.0

## LVHPQ
[5]
  S/B (signal to background ratio): 129.9

## LWHPM
[4]
  S/B (signal to background ratio): 64.6

## LWHPQ
[5]
  S/B (signal to background ratio): 177.2

## LYHPQ
[5]
  S/B (signal to background ratio): 211.9

## MAAHF [L-amino acid 5-mer array peptide]
[5]
  S/B (signal to background ratio): 25.6
[2]
  S/B (signal to background ratio): 25.6

## MAFHF [L-amino acid 5-mer array peptide]
[1]
  S/B (signal to background ratio): 4.8
[2]
  S/B (signal to background ratio): 4.8

## MAHPQ
[5]
  S/B (signal to background ratio): 140.8

## MAKHF [L-amino acid 5-mer array peptide]
[2]
  S/B (signal to background ratio): 5.4
[3]
  S/B: 5.4

## MALHF [L-amino acid 5-mer array peptide]
[2]
  S/B (signal to background ratio): 8.0
[3]
  S/B: 8.0

## MAMHF [L-amino acid 5-mer array peptide]
[2]
  S/B (signal to background ratio): 17.9
[3]
  S/B: 17.9

## MANHF [L-amino acid 5-mer array peptide]
[2]
  S/B (signal to background ratio): 6.0
[3]
  S/B: 6.0

## MDHPQ
[4]
  S/B (signal to background ratio): 88.9

## MEHPM
[5]
  S/B (signal to background ratio): 23.4

## MFHPM
[4]
  S/B (signal to background ratio): 85.4

## MFHPQ
[5]
  S/B (signal to background ratio): 198.9

## MGHPQ
[5]
  S/B (signal to background ratio): 175.3

## MGNHF [L-amino acid 5-mer array peptide]
[1]
  S/B (signal to background ratio): 4.3
[2]
  S/B (signal to background ratio): 4.3

## MHHPQ
[5]
  S/B (signal to background ratio): 178.1

## MHPMA
[4]
  S/B (signal to background ratio): 62.7

## MHPMG
[5]
  S/B (signal to background ratio): 42.9

## MHPMI
[1]
  S/B (signal to background ratio): 4.7

## MHPMM
[3]
  S/B: 9.8

## MHPMR
[3]
  S/B: 10.8

## MHPMS
[5]
  S/B (signal to background ratio): 25.8

## MHPMV
[5]
  S/B (signal to background ratio): 20.7

## MHPMW
[1]
  S/B (signal to background ratio): 4.3

## MHPQA
[5]
  S/B (signal to background ratio): 138.1

## MHPQF
[4]
  S/B (signal to background ratio): 107.7

## MHPQG
[5]
  S/B (signal to background ratio): 122.9

## MHPQK
[3]
  S/B: 9.8

## MHPQN
[5]
  S/B (signal to background ratio): 120.0

## MHPQQ
[5]
  S/B (signal to background ratio): 29.0

## MHPQS
[4]
  S/B (signal to background ratio): 75.9

## MHPQV
[5]
  S/B (signal to background ratio): 55.8

## MIHPM
[5]
  S/B (signal to background ratio): 32.1

## MIHPQ
[4]
  S/B (signal to background ratio): 97.1

## MKHPM
[5]
  S/B (signal to background ratio): 20.4

## MKHPQ
[4]
  S/B (signal to background ratio): 84.7

## MLAHF [L-amino acid 5-mer array peptide]
[2]
  S/B (signal to background ratio): 7.2
[3]
  S/B: 7.2

## MLHPQ
[5]
  S/B (signal to background ratio): 136.4

## MMHPM
[5]
  S/B (signal to background ratio): 48.8

## MNHPQ
[5]
  S/B (signal to background ratio): 166.1

## MPGHF [L-amino acid 5-mer array peptide]
[2]
  S/B (signal to background ratio): 5.6
[3]
  S/B: 5.6

## MPHPM
[4]
  S/B (signal to background ratio): 58.7

## MPHPQ
[5]
  S/B (signal to background ratio): 180.4

## MPQHF
[1]
  S/B (signal to background ratio): 4.4

## MPWRN [L-amino acid 5-mer array peptide]
[2]
  S/B (signal to background ratio): 5.2
[3]
  S/B: 5.2
